# Measurements: patent publication US6461997B1, “Triazole sulfones having herbicidal activity” (Monsanto Technology LLC, priority 1999, dated 2002)
# What was measured:
# [1] = tested on: SORHA (johnsongrass (seedling)); assay: Pre-emergence herbicidal activity, warm season; assay type: in vivo, Sorghum halepense; conditions: GR80 = lowest tested rate (300, 100, 30, 10 g/ha) with 80% or greater inhibition; approx. 14 days after treating; 30/21° C.
# Summary of the method: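 Seeds sown in sterilised fertilised topsoil received surface-applied compound in 50:50 acetone/water, typically at 300, 100, 30 and 10 g/ha, then greenhouse-grown at 30/21° C (warm-season species) or 18/13° C (cool-season species). Percent inhibition versus untreated plants was scored at about 14 days, giving GR80; an asterisk marks activity short of 80% at the top rate.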
# [2] = tested on: DIGSA (large crabgrass); assay: Pre-emergence herbicidal activity, warm season; assay type: in vivo, Digitaria sanguinalis; conditions: GR80 = lowest tested rate (300, 100, 30, 10 g/ha) with 80% or greater inhibition; approx. 14 days after treating; 30/21° C.
# Summary of the method: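 Under 18/13 °C (ALOMY, POLCO) or 30/21 °C (PANMI, DIGSA) day/night, pre-emergence soil-surface treatments at 300, 100, 30 and 10 g/ha were evaluated after roughly 14 days. GR80 reflects percent inhibition relative to untreated plants.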
# [3] = tested on: SORVU (shattercane); assay: Pre-plant incorporated (PPI) herbicidal activity, warm season; assay type: in vivo, Sorghum vulgare; conditions: for Percent inhibition SORVU / inhibition at 10 g/ha / inhibition at 30 g/ha / inhibition at 100 g/ha / inhibition at 300 g/ha / inhibition at 900 g/ha: PPI application; for PPI activity GR80, SORVU: pre-plant incorporated, lowest tested rate with 80% or greater inhibition, about 14 days; for inhibition at 10 g/ha / inhibition at 30 g/ha / inhibition at 100 g/ha / inhibition at 300 g/ha / inhibition at 900 g/ha: Sorghum bicolor, read-out: Percent inhibition SORVU
# Protocol: (§1) In another set of tests, the pre-plant incorporated (PPI) activity of compounds of this invention was evaluated on the same species as for the pre-emergence tests described above. In the PPI tests the following procedure, designed to simulate PPI application, was used.
# (§2) A pre-prepared topsoil mixture (described above) was placed in a pot and compacted to a depth of 1.0 to 1.25 cm from the top of the pot. Seeds of each of several monocotyledonous and dicotyledonous annual plant species were placed on top of the soil. A sufficient quantity of soil to cover the seeds and level fill the pot was weighed into an open container. A known amount of the test compound was dissolved or suspended in an organic solvent and applied by spraying to this cover soil. The cover soil was thoroughly mixed to distribute the test compound throughout the cover soil, and was then applied as a cover layer over the seeds. Untreated soil was used as a cover layer for control pots. After treatment the plants were placed in a greenhouse where they received 0.64 cm of overhead irrigation. All subsequent watering consisted of a light overhead mist and/or subirrigation as needed for germination and growth. Tables 9 and 10 below relate to warm season plant species which were placed after pre-emergence treatment in a greenhouse with a 30/21° C. day/night temperature regime. Tables 11 and 12 below relates to cool season plant species placed after pre-emergence treatment in a greenhouse or growth chamber with an 18/13° C. day/night temperature regime. Only the compounds of Examples 1, 6, 8, 11, 13 and 15-20 were included in PPI tests.
# (§3) Approximately 14 days after planting and treating, the plants were observed and herbicidal efficacy recorded as percent inhibition by comparison with untreated plants.
# [4] = tested on: AGRRE (quackgrass (seedling)); assay: Pre-plant incorporated (PPI) herbicidal activity, cool season; assay type: in vivo, Elymus repens; conditions: for PPI activity GR80, AGRRE: pre-plant incorporated, lowest tested rate with 80% or greater inhibition, about 14 days; for Percent inhibition AGRRE / inhibition at 10 g/ha / inhibition at 30 g/ha / inhibition at 100 g/ha / inhibition at 300 g/ha / inhibition at 900 g/ha: weed, PPI application; for inhibition at 10 g/ha / inhibition at 30 g/ha / inhibition at 100 g/ha / inhibition at 300 g/ha / inhibition at 900 g/ha: Elymus repens, read-out: Percent inhibition AGRRE
# Protocol: as §1, §2, §3
# [5] = tested on: rice (ORYSA); assay: Selectivity test, PPI, warm season crop; assay type: in vivo, Oryza sativa; conditions: PPI application; for inhibition at 10 g/ha / inhibition at 30 g/ha / inhibition at 100 g/ha / inhibition at 300 g/ha / inhibition at 900 g/ha: Oryza sativa, read-out: Percent inhibition ORYSA
# Protocol: as §2, §3
# (§4) Additional pre-emergence and PPI tests were conducted by the procedures described above, on warm and cool season weed species in the presence of crop species, to assess herbicidal selectivity. Crop species included in warm season tests were corn (Zea mays, ZEAMX), rice (Oryza sativa, ORYSA) and soybean (Glycine max, GLYMX). Crop species included in cool season tests were wheat (Triticum aestivum, TRZAW), barley (Hordeunm vulgare, HORVX) and oilseed rape (Brassica napus, BRSNS).
# (§5) Tables 15 and 16 relate to pre-emergence and PPI tests respectively on warm season species. Table 17 relates to pre-emergence tests on cool season species.
# [6] = tested on: oilseed rape (BRSNS); assay: Selectivity test, PPI, cool season crop; assay type: in vivo, Brassica napus; conditions: PPI application; for inhibition at 10 g/ha / inhibition at 30 g/ha / inhibition at 100 g/ha / inhibition at 300 g/ha / inhibition at 900 g/ha: Brassica napus, read-out: Percent inhibition BRSNS
# Protocol: as §2, §3, §4, §5
SMILES,Pre-emergence activity (GR80) SORHA [1] [g/ha],Pre-emergence activity (GR80) DIGSA [2] [g/ha],"PPI activity GR80, SORVU [3]","PPI activity GR80, AGRRE [4] [g/ha]",inhibition at 10 g/ha ([3]; 10 g/ha) [%],inhibition at 30 g/ha ([3]; 30 g/ha) [%],inhibition at 100 g/ha ([3]; 100 g/ha) [%],inhibition at 300 g/ha ([3]; 300 g/ha) [%],inhibition at 900 g/ha ([3]; 900 g/ha) [%],inhibition at 10 g/ha ([4]; 10 g/ha) [%],inhibition at 30 g/ha ([4]; 30 g/ha) [%],inhibition at 100 g/ha ([4]; 100 g/ha) [%],inhibition at 300 g/ha ([4]; 300 g/ha) [%],inhibition at 900 g/ha ([4]; 900 g/ha) [%],inhibition at 10 g/ha ([5]; 10 g/ha) [%],inhibition at 30 g/ha ([5]; 30 g/ha) [%],inhibition at 100 g/ha ([5]; 100 g/ha) [%],inhibition at 900 g/ha ([5]; 900 g/ha) [%],inhibition at 10 g/ha ([6]; 10 g/ha) [%],inhibition at 30 g/ha ([6]; 30 g/ha) [%],other results
CCN(CC)C(=O)n1cnc(S(=O)(=O)C(F)(F)C(F)F)n1 [Example 16],100,30,30 g/ha,300,–,–,–,–,–,–,–,–,–,–,–,–,–,–,–,–,Percent inhibition SORVU ([3]; 10 g/ha): 20%; Percent inhibition SORVU ([3]; 30 g/ha): 80%; Percent inhibition SORVU ([3]; 100 g/ha): 100%; Percent inhibition SORVU ([3]; 300 g/ha): 100%; Percent inhibition SORVU ([3]; 900 g/ha): 100%; Percent inhibition AGRRE ([4]; 10 g/ha): 0%; Percent inhibition AGRRE ([4]; 30 g/ha): 0%; Percent inhibition AGRRE ([4]; 100 g/ha): 0%; Percent inhibition AGRRE ([4]; 300 g/ha): 20%; Percent inhibition AGRRE ([4]; 900 g/ha): 70%; Percent inhibition ORYSA ([5]; 10 g/ha): 0%; Percent inhibition ORYSA ([5]; 30 g/ha): 0%; Percent inhibition ORYSA ([5]; 100 g/ha): 30%; Percent inhibition ORYSA ([5]; 300 g/ha): 90%; Percent inhibition ORYSA ([5]; 900 g/ha): 100%; Percent inhibition BRSNS ([6]; 10 g/ha): 0%; Percent inhibition BRSNS ([6]; 30 g/ha): 0%; Percent inhibition BRSNS ([6]; 100 g/ha): 0%; Percent inhibition BRSNS ([6]; 300 g/ha): 30%; Percent inhibition BRSNS ([6]; 900 g/ha): 75%
"C=CCC(F)(F)S(=O)(=O)c1ncn(C(=O)N(CC)CC)n1 [Example 17, 1-(N,N-diethylcarbamoyl)-3-[(1,1-difluoro-3-butenyl)sulfonyl]-1,2,4-triazole]",100,100,"* (activity observed, at least at highest rate, but <80% inhibition)",100,20,70,100,100,100,0,40,50,60,70,0,0,0,60,0,0,inhibition at 300 g/ha ([5]; 300 g/ha): 30%; inhibition at 100 g/ha ([6]; 100 g/ha): 0%; inhibition at 300 g/ha ([6]; 300 g/ha): 60%; inhibition at 900 g/ha ([6]; 900 g/ha): 95%
C=C(C)CC(F)(F)S(=O)(=O)c1ncn(C(=O)N(CC)CC)n1 [Example 18],100,100,100 g/ha,100,20,50,50,100,100,0,30,20,20,80,0,0,0,10,0,0,inhibition at 300 g/ha ([5]; 300 g/ha): 15%; inhibition at 300 g/ha ([6]; 300 g/ha): 20%; inhibition at 900 g/ha ([6]; 900 g/ha): 100%
C=C(Br)CC(F)(F)S(=O)(=O)c1ncn(C(=O)N(CC)CC)n1 [Example 19],100,100,300 g/ha,100,30,50,65,100,100,0,0,10,20,80,0,0,0,20,0,0,inhibition at 100 g/ha ([6]; 100 g/ha): 0%; inhibition at 300 g/ha ([6]; 300 g/ha): 60%; inhibition at 900 g/ha ([6]; 900 g/ha): 95%
C=C(CC(F)(F)S(=O)(=O)c1ncn(C(=O)N(CC)CC)n1)C[Si](C)(C)C [Example 20],300,100,"* (activity observed, at least at highest rate, but <80% inhibition)",300,–,–,–,–,–,–,–,–,–,–,–,–,–,–,–,–,Percent inhibition SORVU ([3]; 10 g/ha): 0%; Percent inhibition SORVU ([3]; 30 g/ha): 0%; Percent inhibition SORVU ([3]; 100 g/ha): 30%; Percent inhibition SORVU ([3]; 300 g/ha): 40%; Percent inhibition SORVU ([3]; 900 g/ha): 100%; Percent inhibition AGRRE ([4]; 10 g/ha): 0%; Percent inhibition AGRRE ([4]; 30 g/ha): 10%; Percent inhibition AGRRE ([4]; 100 g/ha): 65%; Percent inhibition AGRRE ([4]; 300 g/ha): 40%; Percent inhibition AGRRE ([4]; 900 g/ha): 80%; Percent inhibition ORYSA ([5]; 10 g/ha): 0%; Percent inhibition ORYSA ([5]; 30 g/ha): 0%; Percent inhibition ORYSA ([5]; 100 g/ha): 0%; Percent inhibition ORYSA ([5]; 300 g/ha): 10%; Percent inhibition ORYSA ([5]; 900 g/ha): 40%; Percent inhibition BRSNS ([6]; 10 g/ha): 0%; Percent inhibition BRSNS ([6]; 30 g/ha): 20%; Percent inhibition BRSNS ([6]; 100 g/ha): 20%; Percent inhibition BRSNS ([6]; 300 g/ha): 60%; Percent inhibition BRSNS ([6]; 900 g/ha): 95%
